Laboratory results as given in article PMC12106687 (Nature Communications, 2025).

Biological target: HECTD1 (Homo sapiens, UniProt Q9ULT8)
Test: in-cell competitive QTRP
Format: biochemical
Conditions: covalent; C1368; […], […] h in HEK293T cells

Chain of HECTD1 (Q9ULT8 whole entry): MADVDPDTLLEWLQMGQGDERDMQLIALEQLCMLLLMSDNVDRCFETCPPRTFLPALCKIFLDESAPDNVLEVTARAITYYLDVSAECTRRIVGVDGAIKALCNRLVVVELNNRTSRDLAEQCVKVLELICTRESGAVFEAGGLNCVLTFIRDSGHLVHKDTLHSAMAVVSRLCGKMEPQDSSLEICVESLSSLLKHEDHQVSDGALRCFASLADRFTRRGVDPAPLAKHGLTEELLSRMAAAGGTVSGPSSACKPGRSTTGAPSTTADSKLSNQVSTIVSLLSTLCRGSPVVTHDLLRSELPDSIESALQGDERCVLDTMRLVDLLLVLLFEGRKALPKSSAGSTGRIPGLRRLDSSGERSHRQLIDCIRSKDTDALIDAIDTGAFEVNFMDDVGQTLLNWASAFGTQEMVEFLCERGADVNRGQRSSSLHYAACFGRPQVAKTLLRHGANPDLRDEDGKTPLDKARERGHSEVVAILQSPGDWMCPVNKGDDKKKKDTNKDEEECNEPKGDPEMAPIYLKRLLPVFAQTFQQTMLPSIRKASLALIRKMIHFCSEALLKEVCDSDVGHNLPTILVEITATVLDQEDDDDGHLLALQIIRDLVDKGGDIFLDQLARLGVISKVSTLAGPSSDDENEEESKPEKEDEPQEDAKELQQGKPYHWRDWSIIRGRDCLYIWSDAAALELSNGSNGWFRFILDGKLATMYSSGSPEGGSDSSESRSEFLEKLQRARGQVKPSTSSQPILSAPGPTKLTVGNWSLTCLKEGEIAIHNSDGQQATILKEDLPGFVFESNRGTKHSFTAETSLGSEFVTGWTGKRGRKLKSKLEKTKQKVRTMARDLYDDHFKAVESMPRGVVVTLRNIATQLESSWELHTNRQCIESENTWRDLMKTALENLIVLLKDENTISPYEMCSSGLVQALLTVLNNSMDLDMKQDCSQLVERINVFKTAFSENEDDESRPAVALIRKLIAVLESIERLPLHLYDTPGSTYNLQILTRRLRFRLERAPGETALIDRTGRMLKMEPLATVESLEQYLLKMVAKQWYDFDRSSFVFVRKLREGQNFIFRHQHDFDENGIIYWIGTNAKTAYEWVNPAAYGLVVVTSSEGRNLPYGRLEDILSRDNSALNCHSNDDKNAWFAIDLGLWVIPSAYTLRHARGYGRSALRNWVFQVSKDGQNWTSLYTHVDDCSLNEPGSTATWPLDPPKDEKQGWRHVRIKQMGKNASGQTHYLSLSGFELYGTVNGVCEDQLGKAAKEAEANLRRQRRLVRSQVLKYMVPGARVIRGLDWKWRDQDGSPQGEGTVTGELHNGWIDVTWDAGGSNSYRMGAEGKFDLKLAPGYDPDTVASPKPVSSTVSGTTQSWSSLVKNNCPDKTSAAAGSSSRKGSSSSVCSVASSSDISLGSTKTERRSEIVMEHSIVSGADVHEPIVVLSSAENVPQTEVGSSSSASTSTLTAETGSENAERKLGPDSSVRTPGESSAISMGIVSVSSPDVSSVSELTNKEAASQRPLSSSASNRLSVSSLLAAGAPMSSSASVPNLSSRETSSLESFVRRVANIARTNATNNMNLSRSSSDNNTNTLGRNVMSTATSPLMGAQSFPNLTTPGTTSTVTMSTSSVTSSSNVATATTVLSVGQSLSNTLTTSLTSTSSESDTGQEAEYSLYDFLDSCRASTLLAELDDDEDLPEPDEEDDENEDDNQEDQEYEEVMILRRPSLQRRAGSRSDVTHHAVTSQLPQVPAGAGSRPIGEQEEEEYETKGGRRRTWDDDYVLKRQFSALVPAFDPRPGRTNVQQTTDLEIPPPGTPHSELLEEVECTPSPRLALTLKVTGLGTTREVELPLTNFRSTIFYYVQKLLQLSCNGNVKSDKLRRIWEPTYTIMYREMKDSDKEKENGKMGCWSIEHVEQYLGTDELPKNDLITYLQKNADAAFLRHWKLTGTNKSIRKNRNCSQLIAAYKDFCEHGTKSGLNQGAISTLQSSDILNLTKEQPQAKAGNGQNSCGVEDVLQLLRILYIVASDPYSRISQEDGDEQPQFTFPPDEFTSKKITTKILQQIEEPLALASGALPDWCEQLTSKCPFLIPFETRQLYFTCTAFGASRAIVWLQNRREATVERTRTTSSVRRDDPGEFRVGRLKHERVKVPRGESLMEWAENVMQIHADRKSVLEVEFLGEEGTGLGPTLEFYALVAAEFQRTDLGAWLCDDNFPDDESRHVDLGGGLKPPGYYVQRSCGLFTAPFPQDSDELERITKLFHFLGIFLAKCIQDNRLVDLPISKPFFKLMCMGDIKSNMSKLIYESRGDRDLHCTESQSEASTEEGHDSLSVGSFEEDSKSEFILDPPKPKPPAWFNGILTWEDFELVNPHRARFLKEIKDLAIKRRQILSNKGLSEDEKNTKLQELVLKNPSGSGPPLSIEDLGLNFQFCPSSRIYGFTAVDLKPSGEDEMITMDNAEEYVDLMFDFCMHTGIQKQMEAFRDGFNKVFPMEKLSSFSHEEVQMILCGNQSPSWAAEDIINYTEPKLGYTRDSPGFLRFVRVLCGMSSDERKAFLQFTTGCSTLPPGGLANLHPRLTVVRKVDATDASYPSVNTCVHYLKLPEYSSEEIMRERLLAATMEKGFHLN

**Q.** With `C=C(CC)C(=O)c1ccc(OCC(=O)O)c(Cl)c1Cl` [etacrynic acid] as the compound, how does the RH/L read?
**A.** The RH/L was “the etacrynic acid-engaged C1368 of HECTD1 is spatially distant from the active site”.
